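These data come from cells grown in 96-well plates and exposed to compound for 48 hours at five concentrations. TGI marks complete inhibition of growth.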
Columns and labels:
Experiment in all cases: inhibition of tumour cell growth, NCI panel, 48 h
[1] = test system: 786-0 renal
[2] = test system: CCRF-CEM leukemia
[3] = test system: COLO 205 colon
[4] = test system: HCT-15 colon
[5] = test system: HL-60(TB) leukemia
[6] = test system: HOP-62 NSCLC
[7] = test system: HS 578T breast
[8] = test system: MCF7 breast
[9] = test system: NCI-H226 lung
[10] = test system: NCI-H522 lung
[11] = test system: OVCAR-5 ovarian
[12] = test system: OVCAR-8 ovarian
[13] = test system: SF-295 CNS
[14] = test system: SF-539 CNS
[15] = test system: SNB-19 CNS
[16] = test system: SNB-75 CNS
[17] = test system: HCC-2998 colon
[18] = test system: MALME-3M melanoma
[19] = test system: SR leukemia
[20] = test system: UACC-62 melanoma

In the case of `CC1(C)CC(=O)c2c(nc3c(ccc4ccccc43)c2-c2ccc(NC(=O)CCCCC(=O)Nc3ccc(-c4c5c(nc6c4ccc4ccccc46)CC(C)(C)CC5=O)cc3)cc2)C1`, the TGI [1] is reported as greater than 100 µM, the TGI [2] is reported as 78.3 µM and the TGI [3] is reported as 65.1 µM. It also gave a TGI [4] of 50.9 µM, a TGI [5] of 77.6 µM and a TGI [6] greater than 100 µM. For the same compound, the TGI [7] was greater than 100 µM, the TGI [8] was greater than 100 µM and the TGI [9] was 54.9 µM. For the same compound, the TGI [10] was greater than 100 µM, the TGI [11] was greater than 100 µM and the TGI [12] was 98.4 µM. It also gave a TGI [13] of 41.6 µM, a TGI [14] of 46.6 µM and a TGI [15] greater than 100 µM. The TGI [16] was 53.1 µM.
Compound `NC1Cc2ccccc2OC1=O` (stereo unspecified) has a TGI [1] greater than 100 µM, a TGI [3] greater than 100 µM and a TGI [17] greater than 100 µM. The TGI [4] was greater than 100 µM, the TGI [6] was greater than 100 µM and the TGI [7] was greater than 100 µM. It also gave a TGI [18] greater than 100 µM, a TGI [8] greater than 100 µM and a TGI [9] greater than 100 µM. The TGI [10] was greater than 100 µM, the TGI [11] was greater than 100 µM and the TGI [12] was greater than 100 µM. It also gave a TGI [13] greater than 100 µM, a TGI [14] greater than 100 µM and a TGI [15] greater than 100 µM. The TGI [16] was greater than 100 µM, the TGI [19] was greater than 100 µM and the TGI [20] was greater than 100 µM.
`CC(C)(C)OC(=O)Cn1ncn(NC(=O)Cc2ccccc2)c1=O` was tested, and the TGI [1] was greater than 10 µM, the TGI [2] was greater than 10 µM and the TGI [3] was greater than 10 µM. For the same compound, the TGI [17] was greater than 10 µM, the TGI [4] was greater than 10 µM and the TGI [6] was greater than 10 µM. It also gave a TGI [7] greater than 10 µM, a TGI [18] greater than 10 µM and a TGI [8] greater than 10 µM. It also gave a TGI [9] greater than 10 µM, a TGI [10] greater than 10 µM and a TGI [11] greater than 10 µM. It also gave a TGI [12] greater than 10 µM, a TGI [13] greater than 10 µM and a TGI [14] greater than 10 µM. It also gave a TGI [15] greater than 10 µM, a TGI [19] greater than 10 µM and a TGI [20] greater than 10 µM.
`CCC(O)c1ccc(N=Cc2ccccc2O)cc1` (stereo unspecified) showed a TGI [1] greater than 100 µM, a TGI [3] greater than 100 µM and a TGI [17] greater than 100 µM. It also gave a TGI [4] greater than 100 µM, a TGI [5] greater than 100 µM and a TGI [6] greater than 100 µM. The TGI [18] was greater than 100 µM, the TGI [8] was greater than 100 µM and the TGI [9] was greater than 100 µM. It also gave a TGI [10] greater than 100 µM, a TGI [11] greater than 100 µM and a TGI [13] greater than 100 µM. It also gave a TGI [14] greater than 100 µM, a TGI [15] greater than 100 µM and a TGI [16] greater than 100 µM. For the same compound, the TGI [19] was greater than 100 µM and the TGI [20] was greater than 100 µM.
In the case of `COc1ccc2nc3n(c2c1)C(=O)c1ccccc1-3`, the TGI [1] is reported as greater than 100 µM, the TGI [2] is reported as greater than 100 µM and the TGI [3] is reported as greater than 100 µM. It also gave a TGI [17] greater than 100 µM, a TGI [4] greater than 100 µM and a TGI [5] greater than 100 µM. For the same compound, the TGI [6] was greater than 100 µM, the TGI [18] was greater than 100 µM and the TGI [8] was greater than 100 µM. The TGI [9] was greater than 100 µM, the TGI [10] was greater than 100 µM and the TGI [11] was greater than 100 µM. It also gave a TGI [12] greater than 100 µM, a TGI [13] greater than 100 µM and a TGI [14] greater than 100 µM. For the same compound, the TGI [15] was greater than 100 µM, the TGI [16] was greater than 100 µM and the TGI [19] was greater than 100 µM. For the same compound, the TGI [20] was greater than 100 µM.
With `CCOC(=O)C(C)c1nc2ccc(C(F)(F)F)cc2[nH]c1=O` (stereo unspecified) the TGI [1] was greater than 100 µM, the TGI [2] was greater than 100 µM and the TGI [3] was greater than 100 µM. It also gave a TGI [17] greater than 100 µM, a TGI [4] greater than 100 µM and a TGI [5] greater than 100 µM. The TGI [6] was greater than 100 µM, the TGI [7] was greater than 100 µM and the TGI [18] was greater than 100 µM. It also gave a TGI [8] greater than 100 µM, a TGI [9] greater than 100 µM and a TGI [11] greater than 100 µM. It also gave a TGI [12] greater than 100 µM, a TGI [13] greater than 100 µM and a TGI [14] greater than 100 µM. The TGI [15] was greater than 100 µM, the TGI [16] was greater than 100 µM and the TGI [20] was greater than 100 µM.
